In the supplement of paper PMC13380429:

How the values were obtained:
Conditions in all cases: 72 h
HepG2 [1] = assay: relative viability EC50 (midpoint between 100% and the lowest measured viability); higher = less toxic
Vero E6 [2] = assay: as above
U2OS [3] = assay: as above
Caco-2 [4] = assay: as above
HepG2 [5] = assay: drug sensitivity score (DSS) for viability; higher = more toxic; extreme values may be limits of the assay
Vero E6 [6] = assay: as above
U2OS [7] = assay: as above
Caco-2 [8] = assay: as above
Calu-3 [9] = assay: as above
HepG2 [10] = assay: cell viability relative to DMSO; higher = less toxic
Vero E6 [11] = assay: as above
U2OS [12] = assay: as above
Caco-2 [13] = assay: as above
Calu-3 [14] = assay: as above
Calu-3 [15] = assay: relative viability EC50 (midpoint between 100% and the lowest measured viability); higher = less toxic

SMILES	relative viability EC50 (HepG2 [1])	relative viability EC50 (Vero E6 [2])	relative viability EC50 (U2OS [3])	relative viability EC50 (Caco-2 [4])	drug sensitivity score (HepG2 [5])	drug sensitivity score (Vero E6 [6])	drug sensitivity score (U2OS [7])	drug sensitivity score (Caco-2 [8])	drug sensitivity score (Calu-3 [9])	cell viability (HepG2 [10]; 1 nM)	cell viability (HepG2 [10]; 10 nM)	cell viability (HepG2 [10]; 100 nM)	cell viability (HepG2 [10]; 1000 nM)	cell viability (HepG2 [10]; 10000 nM)	cell viability (Vero E6 [11]; 1 nM)	cell viability (Vero E6 [11]; 10 nM)	cell viability (Vero E6 [11]; 100 nM)	cell viability (Vero E6 [11]; 1000 nM)	cell viability (Vero E6 [11]; 10000 nM)	cell viability (U2OS [12]; 1 nM)	cell viability (U2OS [12]; 10 nM)	cell viability (U2OS [12]; 100 nM)	cell viability (U2OS [12]; 1000 nM)	cell viability (U2OS [12]; 10000 nM)	cell viability (Caco-2 [13]; 1 nM)	cell viability (Caco-2 [13]; 10 nM)	cell viability (Caco-2 [13]; 100 nM)	cell viability (Caco-2 [13]; 1000 nM)	cell viability (Caco-2 [13]; 10000 nM)	cell viability (Calu-3 [14]; 1 nM)	cell viability (Calu-3 [14]; 10 nM)	cell viability (Calu-3 [14]; 100 nM)	cell viability (Calu-3 [14]; 1000 nM)	cell viability (Calu-3 [14]; 10000 nM)	relative viability EC50 (Calu-3 [15])
C=CC(=O)Nc1cccc(Oc2nc(Nc3ccc(N4CCN(C)CC4)cc3OC)ncc2Cl)c1 [WZ-4002]	> 10 µM	> 10 µM	> 10 µM	> 10 µM	0	2	0	0.3	3.5	98.1%	101%	101%	104%	109%	98.6%	102%	103%	88.4%	78.1%	94.5%	101%	98.9%	99.3%	93.5%	101%	95.9%	94.9%	94.4%	83.7%	94.4%	97%	90.8%	88.6%	56.9%	
Cc1onc(-c2ccccc2Cl)c1C(=O)N[C@@H]1C(=O)N2[C@@H]1SC(C)(C)[C@@H]2C(=O)O [cloxacillin]	> 10 µM	> 10 µM		> 10 µM	0	0		0		107%	116%	104%	90.8%	109%	94.5%	97.6%	99.7%	98.2%	106%						102%	99.7%	98.5%	109%	95.8%						
OCc1ccc(-c2ccc(-c3ccc(CO)s3)o2)s1 [RITA]	2.51 µM		3.25 µM	> 10 µM	6.5	1.3	3.6	1.9	0	107%	110%	88.3%	92.4%	4.6%	101%	103%	103%	102%	68%	95%	96.3%	102%	101%	32.4%	99.2%	103%	100%	89.4%	77.8%	102%	101%	90.6%	103%	106%	> 10 µM
NC(=O)Nc1cc(-c2cccc(F)c2)sc1C(=O)N[C@H]1CCCNC1 [AZD7762]	0.809 µM		0.352 µM	1.61 µM	12.7	4.1	17.4	6.9	12	97.8%	101%	103%	37.8%	1.3%	92%	99.1%	90.7%	84.6%	52.4%	101%	95.9%	97.3%	6.1%	0.1%	96.3%	91.5%	102%	82.6%	25%	106%	96.4%	94.8%	43.4%	7%	0.736 µM
C[C@@H](c1nc(-c2ccc(C#N)cc2)cs1)[C@](O)(Cn1cncn1)c1ccc(F)cc1F [ravuconazole]	3.14 µM	> 10 µM	> 10 µM		2.7	0	0.2	4.2		97.1%	99.3%	84.8%	99.9%	49.1%	96.3%	95.9%	101%	102%	98.6%	101%	105%	95.9%	100%	85.9%	106%	103%	99.3%	84%	59.3%						
CC1(C)C[C@@H]1C(=O)N/C(=C\CCCCSC[C@H](N)C(=O)O)C(=O)O [Cilastatin Sodium]	> 10 µM	> 10 µM	> 10 µM	> 10 µM	0.9	0	0	0		108%	102%	95.4%	87.7%	96.5%	104%	102%	99.2%	99.8%	94.3%	97.4%	100%	95.9%	102%	97.6%	101%	107%	105%	99%	102%						
